One may read the EC50 as the concentration needed to bring the measured effect to its halfway point. As a reminder, the IC50 is the concentration that gives 50% inhibition. By AC50 is commonly meant the midpoint of the concentration-response curve, whichever way the signal moves.

SMILES strings stand for the structures. Active and inactive are the calls of the source. Some results are limits rather than exact numbers.

Series [1] in a line: Luminescence Cell-Based Dose Confirmation HTS to Identify Inhibitors of Platelet Dense Granule Release. [Related pubchem assays: 1663 (Primary HTS), 1678 (Summary of Project)]. The class given is functional.
In series [2] the target is Luciferin 4-monooxygenase (Photinus pyralis, UniProt P08659). Briefly: inhibition of purified Photinus pyralis luciferase – biochemical, luminescence, dose response (AID 1891).
In series [3] the target is T1, RNA-binding protein pos-1 (Caenorhabditis elegans, UniProt G5EF15).
T1 sequence (G5EF15 whole entry): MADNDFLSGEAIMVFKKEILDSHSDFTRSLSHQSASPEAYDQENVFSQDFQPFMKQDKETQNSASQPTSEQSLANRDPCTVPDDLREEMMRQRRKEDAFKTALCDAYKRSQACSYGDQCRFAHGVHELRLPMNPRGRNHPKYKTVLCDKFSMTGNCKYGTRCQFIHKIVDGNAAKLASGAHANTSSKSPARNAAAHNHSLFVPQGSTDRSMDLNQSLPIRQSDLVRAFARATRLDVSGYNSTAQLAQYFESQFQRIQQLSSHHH
Description: disruptors of C. elegans POS-1 RNA interaction – biochemical, fluorescence polarization, dose response (AID 1964).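 Note: purified POS-1 fused to maltose binding protein made in E. coli; potency of compounds blocking POS-1 binding to fluorescent RNA.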 In general terms: Fluorescence polarisation rises when a labelled molecule tumbles more slowly, as on binding a larger partner.

The next series addresses T2, Protein skinhead-1 (Caenorhabditis elegans, UniProt P34707).
T2 sequence (P34707 whole entry): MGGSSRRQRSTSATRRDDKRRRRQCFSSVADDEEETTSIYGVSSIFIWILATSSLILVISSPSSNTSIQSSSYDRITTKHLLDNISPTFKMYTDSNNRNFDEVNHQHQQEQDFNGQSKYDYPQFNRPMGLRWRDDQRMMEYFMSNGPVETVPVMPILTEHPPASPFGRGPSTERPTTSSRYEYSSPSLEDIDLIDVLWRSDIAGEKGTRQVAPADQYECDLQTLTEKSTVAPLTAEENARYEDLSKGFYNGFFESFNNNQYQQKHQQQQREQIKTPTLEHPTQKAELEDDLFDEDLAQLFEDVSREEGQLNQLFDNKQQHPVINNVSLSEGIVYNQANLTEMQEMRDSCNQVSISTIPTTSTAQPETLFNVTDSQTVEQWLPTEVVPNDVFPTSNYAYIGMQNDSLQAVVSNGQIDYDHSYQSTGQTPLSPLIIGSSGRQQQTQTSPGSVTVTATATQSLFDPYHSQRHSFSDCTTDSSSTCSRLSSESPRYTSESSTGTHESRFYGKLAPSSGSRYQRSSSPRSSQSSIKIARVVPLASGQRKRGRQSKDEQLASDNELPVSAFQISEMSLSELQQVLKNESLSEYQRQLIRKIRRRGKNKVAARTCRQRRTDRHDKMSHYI
Type of series: functional.

Series [4] in a line: cells. The class given is functional, cell-based.
Series [5] can be described thus: cells. The class given is functional, cell-based. This is another data set of the same source.
The nature of series [6]: viability of PTEN-deleted HCT116 cells – cell-based, HCT116 PTEN knockout, dose response (AID 1047).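 Note: HCT116 colon tumor cells with PTEN knocked out; cells exposed to compound for 60 hours before readout; potency for loss of cell viability measured by luminescence.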 The class given is functional.
Series [7] is described as follows: viability of HCT116 lacking mutant beta-catenin – cell-based, human colon tumor, dose response (AID 1045).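 Note: HCT116 colon tumor cells with beta catenin knocked out; cells exposed to compound for 60 hours.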 Type of series: functional.
Series [8] deals with T3, Calpain-2 catalytic subunit (Sus scrofa, UniProt P43367).
T3 sequence (P43367 whole entry): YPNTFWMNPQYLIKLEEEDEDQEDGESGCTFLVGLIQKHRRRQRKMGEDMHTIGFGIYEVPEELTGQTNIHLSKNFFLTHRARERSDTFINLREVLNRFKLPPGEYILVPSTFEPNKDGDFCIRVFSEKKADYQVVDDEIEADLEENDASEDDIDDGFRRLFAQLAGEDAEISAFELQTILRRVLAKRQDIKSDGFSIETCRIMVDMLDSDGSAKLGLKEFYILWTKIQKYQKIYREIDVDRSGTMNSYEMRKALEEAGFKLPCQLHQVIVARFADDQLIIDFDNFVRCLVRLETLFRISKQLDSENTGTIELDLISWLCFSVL
Briefly: m-calpain protease blockers, concentration series – biochemical, fluorogenic peptide substrate, dose response (AID 1420). The class given is functional.

The target of the next series is Cytochrome P450 2C9 (Homo sapiens, UniProt P11712).
In another series the target is T4, Cytochrome P450 1A2 (Homo sapiens, UniProt P05177).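 Note: PubChem cytochrome P450 panel assay, CYP1A2 panel member.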
T4 sequence (P05177 whole entry): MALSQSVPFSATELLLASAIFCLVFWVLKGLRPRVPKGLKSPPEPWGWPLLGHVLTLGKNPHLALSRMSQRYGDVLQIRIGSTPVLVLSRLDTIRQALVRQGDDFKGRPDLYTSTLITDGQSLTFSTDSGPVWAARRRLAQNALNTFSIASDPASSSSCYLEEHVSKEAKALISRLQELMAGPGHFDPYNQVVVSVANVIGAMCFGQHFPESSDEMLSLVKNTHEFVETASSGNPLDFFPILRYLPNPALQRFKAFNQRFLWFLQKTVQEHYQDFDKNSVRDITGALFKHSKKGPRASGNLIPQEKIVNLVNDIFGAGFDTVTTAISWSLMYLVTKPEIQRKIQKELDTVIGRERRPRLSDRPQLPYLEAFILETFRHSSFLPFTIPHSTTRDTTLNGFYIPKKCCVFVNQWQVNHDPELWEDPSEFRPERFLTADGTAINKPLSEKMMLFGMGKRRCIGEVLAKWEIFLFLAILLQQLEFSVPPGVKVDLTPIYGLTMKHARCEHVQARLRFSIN

Series [9] can be described thus: Trypanosoma cruzi growth suppression in host cells – NIH3T3 host cells, beta-gal luminescence, confirmation (AID 2044).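 Note: intracellular parasites grown in NIH/3T3 mouse fibroblasts as host cells; luminescent beta-galactosidase reporter signal from transgenic T. cruzi replicating inside host cells; inhibitors lower the luminescence signal.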 Type of series: functional, cell-based.
Series [10] in a line: NIH3T3 cell viability loss – ATP luminescence, mouse fibroblasts, counter-screen, dose response (AID 2010).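 Note: cells exposed to compound for about 90 hours before reading.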 Type of series: functional, cell-based. In general terms: The purpose of a counterscreen is to sort out artefacts and off-target activity.
In series [11] the target is T5, Heat shock factor protein 1 (Mus musculus, UniProt P38532).
T5 sequence (P38532 whole entry): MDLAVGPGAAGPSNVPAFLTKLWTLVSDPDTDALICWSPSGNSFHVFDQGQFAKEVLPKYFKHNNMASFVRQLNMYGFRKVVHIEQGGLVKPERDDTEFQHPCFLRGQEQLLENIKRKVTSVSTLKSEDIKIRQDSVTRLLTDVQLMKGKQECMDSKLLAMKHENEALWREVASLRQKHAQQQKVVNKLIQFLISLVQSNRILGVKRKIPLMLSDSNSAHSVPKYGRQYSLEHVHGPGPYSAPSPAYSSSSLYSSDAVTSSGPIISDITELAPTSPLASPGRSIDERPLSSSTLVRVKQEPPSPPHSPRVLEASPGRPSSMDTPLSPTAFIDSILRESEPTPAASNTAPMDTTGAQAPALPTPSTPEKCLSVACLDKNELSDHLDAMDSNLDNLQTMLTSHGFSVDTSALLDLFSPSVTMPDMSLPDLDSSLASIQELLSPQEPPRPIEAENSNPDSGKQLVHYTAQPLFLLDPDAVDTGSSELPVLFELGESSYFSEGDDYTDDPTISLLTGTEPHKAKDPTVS
Description: decrease of HSF1-responsive luciferase luminescence – cell-based, NIH3T3, dose retest, confirmation (AID 2382).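 Note: NIH3T3 fibroblasts with HSF1-driven luciferase reporter stressed by proteasome inhibitor MG132; luminescence from HSF1-driven luciferase expression after 8 hours of MG132 stress.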 Type of series: functional.

A further series concerns the target Cytochrome P450 3A4 (Homo sapiens, UniProt P08684).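 Note: CYP3A4 tested as one member of a cytochrome P450 panel screen.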
A further series concerns the target Cytochrome P450 2C19 (Homo sapiens, UniProt P33261). Description: Cytochrome panel assay with activity outcomes. Panel member name: p450-cyp2c19 Compounds with AC50 equal or less than 10 uM are considered active. Type of series: functional. As to conditions: read-out: AC50.

Sequence of Luciferin 4-monooxygenase (P08659 whole entry): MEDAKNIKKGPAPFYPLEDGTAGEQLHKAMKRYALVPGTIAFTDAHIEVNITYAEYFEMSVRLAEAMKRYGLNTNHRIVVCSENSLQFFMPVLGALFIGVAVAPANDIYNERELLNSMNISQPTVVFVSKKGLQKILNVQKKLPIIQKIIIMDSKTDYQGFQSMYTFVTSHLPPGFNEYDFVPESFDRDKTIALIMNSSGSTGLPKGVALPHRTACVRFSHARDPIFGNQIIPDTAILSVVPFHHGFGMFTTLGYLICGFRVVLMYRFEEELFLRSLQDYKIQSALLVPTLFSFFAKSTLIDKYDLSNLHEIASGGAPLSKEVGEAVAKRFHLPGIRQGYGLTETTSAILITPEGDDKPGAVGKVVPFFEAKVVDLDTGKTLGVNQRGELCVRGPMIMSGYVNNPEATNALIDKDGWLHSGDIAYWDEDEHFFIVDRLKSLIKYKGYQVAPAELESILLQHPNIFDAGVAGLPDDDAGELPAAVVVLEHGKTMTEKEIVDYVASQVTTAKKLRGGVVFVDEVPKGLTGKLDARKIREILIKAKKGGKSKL
Sequence of Cytochrome P450 2C9 (P11712 whole entry): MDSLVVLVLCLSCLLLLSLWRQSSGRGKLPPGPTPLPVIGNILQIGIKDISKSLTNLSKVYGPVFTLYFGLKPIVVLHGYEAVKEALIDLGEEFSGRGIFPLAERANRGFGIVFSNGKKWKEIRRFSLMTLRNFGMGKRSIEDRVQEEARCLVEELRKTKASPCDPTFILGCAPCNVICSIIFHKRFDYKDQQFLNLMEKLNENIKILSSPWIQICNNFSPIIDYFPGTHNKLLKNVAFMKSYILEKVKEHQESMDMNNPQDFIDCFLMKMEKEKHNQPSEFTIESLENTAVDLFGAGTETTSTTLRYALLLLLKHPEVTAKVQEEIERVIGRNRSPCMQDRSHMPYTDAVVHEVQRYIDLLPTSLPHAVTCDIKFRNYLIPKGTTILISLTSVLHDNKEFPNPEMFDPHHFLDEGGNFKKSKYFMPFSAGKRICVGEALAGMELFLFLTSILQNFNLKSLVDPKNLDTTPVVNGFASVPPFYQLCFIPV
Sequence of Cytochrome P450 3A4 (P08684 whole entry): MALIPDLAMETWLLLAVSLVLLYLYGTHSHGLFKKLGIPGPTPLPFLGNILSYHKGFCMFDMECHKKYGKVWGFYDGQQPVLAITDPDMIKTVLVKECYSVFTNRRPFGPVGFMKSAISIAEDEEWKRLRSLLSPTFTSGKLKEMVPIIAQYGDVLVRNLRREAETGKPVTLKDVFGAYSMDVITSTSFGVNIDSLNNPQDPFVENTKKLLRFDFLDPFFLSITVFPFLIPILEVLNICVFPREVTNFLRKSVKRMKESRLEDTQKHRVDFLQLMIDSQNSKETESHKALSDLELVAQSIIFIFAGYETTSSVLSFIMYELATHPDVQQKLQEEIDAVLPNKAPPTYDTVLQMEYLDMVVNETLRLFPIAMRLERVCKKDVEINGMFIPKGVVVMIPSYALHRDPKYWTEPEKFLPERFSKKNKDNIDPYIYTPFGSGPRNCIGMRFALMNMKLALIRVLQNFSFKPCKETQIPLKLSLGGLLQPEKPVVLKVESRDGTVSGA
Sequence of Cytochrome P450 2C19 (P33261 whole entry): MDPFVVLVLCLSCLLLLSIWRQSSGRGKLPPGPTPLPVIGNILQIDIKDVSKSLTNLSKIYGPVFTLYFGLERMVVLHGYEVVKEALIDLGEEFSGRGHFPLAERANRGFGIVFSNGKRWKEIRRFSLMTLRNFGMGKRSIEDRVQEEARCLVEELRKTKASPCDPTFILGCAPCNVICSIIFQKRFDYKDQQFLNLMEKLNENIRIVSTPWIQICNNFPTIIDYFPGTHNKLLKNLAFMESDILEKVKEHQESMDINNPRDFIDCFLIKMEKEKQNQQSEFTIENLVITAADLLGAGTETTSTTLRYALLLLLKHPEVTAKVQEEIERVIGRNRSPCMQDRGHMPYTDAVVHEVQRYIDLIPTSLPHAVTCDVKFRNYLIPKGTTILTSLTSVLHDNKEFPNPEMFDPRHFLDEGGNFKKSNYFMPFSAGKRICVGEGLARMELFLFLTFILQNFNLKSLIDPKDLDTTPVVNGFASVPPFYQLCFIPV

In the case of `CCCCOc1cccc(-c2cc(C(=O)NN=C(S)NCC)c3ccccc3n2)c1`, the EC50 in series [1] was 111 µM (active). For `CCCCOc1cccc(-c2cc(C(=O)NNC(=S)NCC)c3ccccc3n2)c1`, in series [2], the EC50 is 2.3 µM (active). On to `O=C(O)COc1ccc(/C=C/c2n[nH]c(-c3ccccc3O)n2)cc1`, for which the EC50 in [3] is listed as > 300 µM (not active).

For `COc1ccc(-n2c(C)nc3cc(C(=O)NCc4ccco4)ccc32)cc1`, on Protein skinhead-1, the IC50 was > 100 µM (inactive). As to `COc1ccc(CC(=O)Nc2cccc(-c3nnc(-c4ccccc4)o3)c2)cc1OC`, the half-maximal effective concentration (EC50) in the series “cells [4]” was > 350 µM (not active); in “cells [5]”, > 350 µM (not active); in [6], 25.4 µM (active); in series [7], 69.6 µM (active). With `COc1cccc(NC(=O)C(C)Oc2ccccc2)c1` (stereo not drawn), at Protein skinhead-1, the IC50 was > 100 µM (inactive).

Regarding `CCC(=O)N1CCN(c2nc3ccc(Br)cc3s2)CC1`, the concentration giving a half-maximal response (EC50) in “cells [4]” is > 350 µM (not active); in “cells [5]”, 144 µM (active). On Protein skinhead-1, the IC50 is 58.6 µM (inactive). With `COc1ccccc1CN(C)CC(=O)Nc1ccc(Cl)cc1F`, the IC50 in series [8] is recorded as > 50 µM (not active). As for `O=C(CCc1ccccc1)NC1CCSC1=O` (stereo not drawn), the IC50 on Protein skinhead-1 was > 100 µM (inactive). On the same count and under the same terms, in the case of `CCN(CC)S(=O)(=O)c1ccc2c(c1)nc(SC(C)C(N)=O)n2-c1ccc(OC)cc1` (stereo not drawn) it was > 100 µM (inactive). `CCn1ccnc1C(O)c1ccccc1OC` (stereo not drawn): the EC50 in the series “cells [4]” and in “cells [5]” was > 350 µM (not active) in each case. Turning to `Cc1ccc(C(=O)CCC(=O)Nc2cccc(C(F)(F)F)c2)cc1`, the EC50 in series [2] and in series [1] was > 112 µM (not active) throughout. Turning to `Clc1ccc(-c2nnc(-c3ccccc3)o2)c(Cl)c1`, the IC50 on Protein skinhead-1 is 51.6 µM (inactive). Consider `Cc1ccc(CNC(=O)CCNS(=O)(=O)c2ccc3c(c2)c(=O)n(C)c(=O)n3C)cc1`, for which the AC50 result on Cytochrome P450 2C9 is reported as “inconclusive”. As to `O=C(COc1cccc2cccnc12)NNC(=O)Nc1ccccc1`, in series [8], the IC50 is < 0.4 µM (not active). For `COC(=O)CN(c1ccccn1)S(=O)(=O)c1ccccc1`, the AC50 at Cytochrome P450 1A2 is 25.1 µM (inconclusive); on Cytochrome P450 2C9 it was “inconclusive”. `O=C(NCCc1nnc2ccc(NCc3ccc(Cl)cc3)nn12)c1ccccc1`: the IC50 in series [8] is on record as 6.17 µM (not active). Regarding `Cc1ccc2c(c1)C(CCN)C(=O)N2Cc1ccccc1` (stereo not drawn), the EC50 in series [2] and in series [1] was > 112 µM (not active) in each case. For the compound `c1c2c(cc3sc(N4CCOCC4)nc13)OCCO2`, the EC50 was 11.4 µM (active) in series [2] and 3.56 µM (active) in [1]. For the compound `O=S(=O)(Cc1ccccc1)NCC1CCCN(Cc2ccc(F)c(F)c2)C1` (stereo not drawn), the EC50 in series [9] is 0.199 µM (active); in [10] it was > 60 µM (not active). The half-inhibitory concentration (IC50) in [8] is 17.6 µM (not active). On to `CNc1nc(C)cc(C)c1S(=O)(=O)c1ccc(C)cc1`, for which the AC50 result at Cytochrome P450 2C9 was “inconclusive”. Turning to `COC(=O)CN1C(=O)[C@H]2[C@@H](c3ccc(C)o3)N3C(=O)CN(CC4CC4)C(=O)[C@@]3(Cc3ccccc3)[C@H]2C1=O`, the EC50 in the series “cells [4]” and in the series “cells [5]” was > 350 µM (not active) throughout. As for `COc1cccc(CN(C)CC(=O)Nc2cccc(C(F)(F)F)c2)c1OC`, the 50% effective concentration (EC50) in [11] was > 195 µM (not active). The IC50 in series [8] is 3.87 µM (not active). For `C=CCOC(=O)C(C#N)c1nc2ccccc2nc1N1CCN(Cc2ccc3c(c2)OCO3)CC1` (stereo not drawn), the half-maximal effective concentration (EC50) in series [2] is 69.2 µM (active); in [1], > 112 µM (not active); in series [9], 1.18 µM (active); in series [10], > 60 µM (not active). With `COc1ccc(CNC(C)C2COc3ccccc3O2)c(OC)c1` (stereo not drawn), the IC50 on Protein skinhead-1 is > 100 µM (inactive).

In the case of `CC1=CC2=NC(=O)/C(=C\c3cccn3CCOc3cc(C)cc(C)c3)C(=N)N2O1`, the IC50 in series [8] was 0.668 µM (not active). The same measure, in the same setting: in the case of `COc1ccc(C(=O)CSc2nc(C(C)(C)C)nc3ccccc23)cc1` it was 12.6 µM (not active). Take `O=C(NNC(=O)C1CCN(S(=O)(=O)c2ccc(Cl)cc2)CC1)c1ccc(Cl)cc1`: the figures for the concentration at half-maximal activity (AC50) on Cytochrome P450 3A4 and on Cytochrome P450 2C9 were 3.55 µM (inconclusive) and “inconclusive”, respectively. For the compound `O=S(=O)(c1ccccc1)N1CCCCC1c1cccnc1` (stereo not drawn), the AC50 result on Cytochrome P450 2C9 was “inconclusive”. For the compound `O=C(NCC(=O)N1CCOCC1)c1ccc(Cl)c(Cl)c1`, the IC50 at Protein skinhead-1 was > 100 µM (inactive).

With `Cc1c(C)n(C)c2ccc(C(=O)NCCCN(C)C3CCCCC3)cc12`, at Protein skinhead-1, the IC50 was > 100 µM (inactive). With `CCCN(CCC)CCCNS(=O)(=O)c1cc(Br)cc2c1N(C(C)=O)CC2`, the AC50 on Cytochrome P450 2C19 is 31.6 µM (inconclusive); at Cytochrome P450 2C9, “inconclusive”. In the case of `Cc1[nH]c2ccccc2c1/C=N/NC(=S)NCc1ccccc1`, the IC50 in series [8] is recorded as 15.1 µM (not active). `O=C(O/N=C\c1ccc(N2CCCCC2)c([N+](=O)[O-])c1)c1c(F)cccc1F`: the AC50 at Cytochrome P450 2C19 was 11.2 µM (inconclusive); on Cytochrome P450 3A4 it was 12.6 µM (inconclusive); on Cytochrome P450 2C9, “inconclusive”. As for `COc1cc(N/N=C/c2ccc(N(C)C)cc2)ncn1`, the values for the concentration for a half-maximal effect (EC50) in series [2] and in series [1] were 2.9 µM (active) and 0.989 µM (active), respectively.

With `CC(=O)Nc1ccc(S(=O)(=O)c2ccc(N)cc2)cc1` [MONO-N-ACETYL DAPSONE], on Cytochrome P450 2C9, the concentration at half-maximal activity (AC50) result was “inconclusive”.
